In US20230414502A1, “Method for Preparing an Aqueous Nanocrystalline Suspension Containing Nanocrystals of Pharmaceutically Active Ingredient and a Combination of Stabilizers, Aqueous Nanocrystalline Suspension and Methods of Use Thereof” (Vysoka skola chemicko-technologicka v Praze, priority 2022, published 2023):
Entries after “also recorded” stand apart in the source; their conditions may differ.

Columns and labels:
[1] = literature values, cell line not given; read-out: IC50 documented for reference drugs; cited from earlier work
[2] = Microscopy of precipitation/recrystallization in DMEM + 10% FBS or PBS, no cells; assay type: physicochemical; conditions: for Solubility in DMSO (in words): 500 μg/mL at most 1% DMSO not reachable; for Recrystallization of API added from DMSO into DMEM + 10% FBS (microscopy): 1% DMSO, 100 μg/mL abiraterone acetate and telmisartan, 500 μg/mL others, no cells
macrophages J774A.1 = experiment: Microscopy of samples incubated with macrophages; assay type: cell-based, mouse; conditions: for Recrystallization/precipitation of API added from DMSO, tested with J774A.1 (microscopy): 1% DMSO, 100 or 500 μg/mL, DMEM + 10% FBS
Procedure: For the purpose of the crystallization form DMSO solution study, the J774A.1 cells in the DMEM+10% FBS+1% AA medium were inoculated in a 96 well-plate with a glass-bottom (Cellvis, P96-1.5H-N) with a density of 2×10^4 cells/well and left to adhere overnight. Then, the medium was removed by aspiration, and nanocrystal samples pre-diluted in the fresh medium were added (from 500 μg/mL decreasing in half concentration trend; 90 μL/well). In some cases (abiraterone acetate, telmisartan), it was not possible to reach 500 μg/mL API concentration together with total DMSO content of maximum 1% (1% DMSO is top limit standard in biochemical testing considering the DMSO toxicity and effect on the cell viability and performance) and therefore these substances were tested at 100 μg/mL concentration. Here the great potential of nanocrystals is clearly presented, since the nanocrystal samples were possible to be prepared and tested at 500 μg/mL even in cases where the DMSO solvents would not be accepted for in vitro testing. If possible, all samples were tested at concentration 500 μg/mL (from nanocrystals or from DMSO stock solutions) and incubated in the well-plate for 18 h.

Row | SMILES | IC50 [1] | Recrystallization of API added from DMSO into DMEM + 10% FBS (microscopy) [2] | also measured
1 | O=c1[nH]cc(F)c(=O)[nH]1 [5-fluorouracil] | 39 µM | – | –
2 | CC(=O)O[C@H]1CC[C@@]2(C)C(=CC[C@@H]3[C@@H]2CC[C@]2(C)C(c4cccnc4)=CC[C@@H]32)C1 [Abiraterone acetate] | – | formation of both new crystals and solid amorphous phase occurs | Solubility in DMSO (in words) [2]: low solubility
3 | CCOc1nc2cccc(C(=O)OC(C)OC(=O)OC3CCCCC3)c2n1Cc1ccc(-c2ccccc2-c2nnn[nH]2)cc1 (centres unmarked) [Candesartan cilexetil] | – | did not form macroscopic crystals | –
4 | COc1cc(/C=C/C(=O)CC(=O)/C=C/c2ccc(O)c(OC)c2)ccc1O [Curcumin] | – | – | Recrystallization/precipitation of API added from DMSO, tested with J774A.1 (microscopy) (macrophages J774A.1): most significant recrystallization/precipitation; also recorded: precipitation/recrystallization from DMSO occurred and was well detectable
5 | CC(C)(C)c1cc(C(C)(C)C)c(NC(=O)c2c[nH]c3ccccc3c2=O)cc1O [Ivacaftor] | – | – | Recrystallization/precipitation of API added from DMSO, tested with J774A.1 (microscopy) (macrophages J774A.1): most significant recrystallization/precipitation; also recorded: precipitation/recrystallization from DMSO occurred and was well detectable; Effect on J774A.1 cells, API added as DMSO solution (macrophages J774A.1; 8-125 μg/mL): causes cell death (membrane blobbing)
6 | COc1cc(C2Oc3cc([C@H]4Oc5cc(O)cc(O)c5C(=O)[C@@H]4O)ccc3OC2CO)ccc1O (some centres unmarked) [Silybinin] | 180 µM | – | –
7 | CCCc1nc2c(C)cc(-c3nc4ccccc4n3C)cc2n1Cc1ccc(-c2ccccc2C(=O)O)cc1 [Telmisartan] | – | did not form macroscopic crystals | Solubility in DMSO (in words) [2]: low solubility
8 | N.N.[Cl][Pt][Cl] [cisplatin] | 181 µM | – | –
